Like-named read-outs stand apart in the source and are kept apart here.
Assays:
Type in all cases: cell-based
168 GPCRs [1] = molecular target: T1, 168 GPCRs (Homo sapiens, UniProt O00574)
T1 construct: host or cells: PathHunter cell lines

168 GPCRs [2] = molecular target: T2, 168 GPCRs (Homo sapiens, UniProt P25116); details: F2R
T2 construct: host or cells: PathHunter cell lines
T2 sequence (P25116 22-425): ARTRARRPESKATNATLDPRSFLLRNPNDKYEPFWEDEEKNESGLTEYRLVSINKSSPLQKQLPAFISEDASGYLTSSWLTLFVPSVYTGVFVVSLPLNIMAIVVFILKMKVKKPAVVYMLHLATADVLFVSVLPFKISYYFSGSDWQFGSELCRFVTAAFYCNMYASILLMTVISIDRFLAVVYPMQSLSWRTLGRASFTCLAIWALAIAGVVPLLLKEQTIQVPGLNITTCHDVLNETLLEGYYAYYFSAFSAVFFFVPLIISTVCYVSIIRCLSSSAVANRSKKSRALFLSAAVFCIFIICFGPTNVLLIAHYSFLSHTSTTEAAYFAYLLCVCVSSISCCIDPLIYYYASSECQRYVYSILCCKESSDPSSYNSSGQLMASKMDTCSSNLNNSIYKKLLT

168 GPCRs [3] = molecular target: T3, 168 GPCRs (Homo sapiens, UniProt P32241); details: VIPR1
T3 construct: host or cells: PathHunter cell lines
T3 sequence (P32241 31-457): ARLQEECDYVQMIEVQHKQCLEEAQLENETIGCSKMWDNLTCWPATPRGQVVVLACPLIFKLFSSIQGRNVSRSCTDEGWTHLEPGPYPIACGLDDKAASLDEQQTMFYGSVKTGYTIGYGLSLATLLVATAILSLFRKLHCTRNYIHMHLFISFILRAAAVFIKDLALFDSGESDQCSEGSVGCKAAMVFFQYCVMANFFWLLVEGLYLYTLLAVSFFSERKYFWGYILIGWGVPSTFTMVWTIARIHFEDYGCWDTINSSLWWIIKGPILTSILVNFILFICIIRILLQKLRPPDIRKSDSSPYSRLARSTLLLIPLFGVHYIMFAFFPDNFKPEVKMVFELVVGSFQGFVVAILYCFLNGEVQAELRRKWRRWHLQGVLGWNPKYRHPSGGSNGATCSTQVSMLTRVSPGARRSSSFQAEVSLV

168 GPCRs [4] = molecular target: T4, 168 GPCRs (Homo sapiens, UniProt P32245); details: MC4R
T4 construct: host or cells: PathHunter cell lines
T4 sequence (P32245 whole entry): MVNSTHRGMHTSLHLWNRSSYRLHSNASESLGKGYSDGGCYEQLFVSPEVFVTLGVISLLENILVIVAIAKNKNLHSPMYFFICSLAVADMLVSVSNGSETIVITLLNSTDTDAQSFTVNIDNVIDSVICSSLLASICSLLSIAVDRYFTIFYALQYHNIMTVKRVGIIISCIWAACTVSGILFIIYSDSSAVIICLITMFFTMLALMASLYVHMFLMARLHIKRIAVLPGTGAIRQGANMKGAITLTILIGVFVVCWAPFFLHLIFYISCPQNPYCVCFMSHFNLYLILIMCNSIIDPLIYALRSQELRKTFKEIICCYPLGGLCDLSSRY

168 GPCRs [5] = molecular target: T5, 168 GPCRs (Homo sapiens, UniProt P32745); details: SSTR3
T5 construct: host or cells: PathHunter cell lines
T5 sequence (P32745 whole entry): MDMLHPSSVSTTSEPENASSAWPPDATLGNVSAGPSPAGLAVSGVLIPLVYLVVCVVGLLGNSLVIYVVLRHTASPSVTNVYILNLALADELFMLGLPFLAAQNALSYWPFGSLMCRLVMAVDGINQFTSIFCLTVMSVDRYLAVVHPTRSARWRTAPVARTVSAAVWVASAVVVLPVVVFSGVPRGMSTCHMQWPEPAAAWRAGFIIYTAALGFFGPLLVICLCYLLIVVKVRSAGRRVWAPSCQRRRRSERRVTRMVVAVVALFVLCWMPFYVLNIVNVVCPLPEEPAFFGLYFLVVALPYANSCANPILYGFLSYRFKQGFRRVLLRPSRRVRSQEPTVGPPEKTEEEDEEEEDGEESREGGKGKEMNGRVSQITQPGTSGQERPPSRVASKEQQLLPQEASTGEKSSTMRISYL

168 GPCRs [6] = molecular target: T6, 168 GPCRs (Homo sapiens, UniProt P35367)
T6 construct: host or cells: PathHunter cell lines
T6 sequence (P35367 whole entry): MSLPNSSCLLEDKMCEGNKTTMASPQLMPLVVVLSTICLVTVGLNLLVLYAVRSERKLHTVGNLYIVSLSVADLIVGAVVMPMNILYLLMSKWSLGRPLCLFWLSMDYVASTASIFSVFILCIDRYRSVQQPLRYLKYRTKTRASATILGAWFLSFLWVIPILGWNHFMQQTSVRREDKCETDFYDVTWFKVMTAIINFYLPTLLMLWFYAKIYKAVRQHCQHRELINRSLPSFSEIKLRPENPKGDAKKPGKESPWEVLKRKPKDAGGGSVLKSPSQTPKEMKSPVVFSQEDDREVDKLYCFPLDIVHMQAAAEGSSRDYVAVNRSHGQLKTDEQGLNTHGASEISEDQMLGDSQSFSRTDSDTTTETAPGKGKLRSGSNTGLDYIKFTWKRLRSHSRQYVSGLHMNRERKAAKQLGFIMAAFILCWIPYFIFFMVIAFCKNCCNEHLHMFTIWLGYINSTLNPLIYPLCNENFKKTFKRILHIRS

168 GPCRs [7] = molecular target: T7, 168 GPCRs (Homo sapiens, UniProt P47871); details: GCGR
T7 construct: host or cells: PathHunter cell lines
T7 sequence (P47871 26-477): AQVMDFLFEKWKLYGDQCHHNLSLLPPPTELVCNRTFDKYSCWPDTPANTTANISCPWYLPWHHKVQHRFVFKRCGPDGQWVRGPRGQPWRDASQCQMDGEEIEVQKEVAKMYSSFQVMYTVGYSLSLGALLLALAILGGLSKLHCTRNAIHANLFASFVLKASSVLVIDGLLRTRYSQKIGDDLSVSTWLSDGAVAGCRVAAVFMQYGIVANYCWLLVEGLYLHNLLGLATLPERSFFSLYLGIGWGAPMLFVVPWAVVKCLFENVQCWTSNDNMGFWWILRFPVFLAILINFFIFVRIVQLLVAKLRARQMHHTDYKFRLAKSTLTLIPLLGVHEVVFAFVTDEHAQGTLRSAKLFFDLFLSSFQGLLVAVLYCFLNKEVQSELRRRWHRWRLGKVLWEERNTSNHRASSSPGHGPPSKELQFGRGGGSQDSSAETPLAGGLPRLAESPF

168 GPCRs [8] = molecular target: T8, 168 GPCRs (Homo sapiens, UniProt P48146)
T8 construct: host or cells: PathHunter cell lines
T8 sequence (P48146 whole entry): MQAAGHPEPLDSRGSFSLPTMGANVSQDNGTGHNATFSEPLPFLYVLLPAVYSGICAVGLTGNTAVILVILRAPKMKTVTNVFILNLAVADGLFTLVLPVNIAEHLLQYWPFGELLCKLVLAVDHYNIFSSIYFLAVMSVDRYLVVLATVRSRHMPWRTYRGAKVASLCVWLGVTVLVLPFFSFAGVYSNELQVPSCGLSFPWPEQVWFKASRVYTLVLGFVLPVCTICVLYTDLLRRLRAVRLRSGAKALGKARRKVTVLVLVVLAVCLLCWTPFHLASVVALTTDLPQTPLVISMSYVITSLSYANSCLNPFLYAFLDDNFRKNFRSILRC

168 GPCRs [9] = molecular target: T9, 168 GPCRs (Homo sapiens, UniProt P51685)
T9 construct: host or cells: PathHunter cell lines
T9 sequence (P51685 whole entry): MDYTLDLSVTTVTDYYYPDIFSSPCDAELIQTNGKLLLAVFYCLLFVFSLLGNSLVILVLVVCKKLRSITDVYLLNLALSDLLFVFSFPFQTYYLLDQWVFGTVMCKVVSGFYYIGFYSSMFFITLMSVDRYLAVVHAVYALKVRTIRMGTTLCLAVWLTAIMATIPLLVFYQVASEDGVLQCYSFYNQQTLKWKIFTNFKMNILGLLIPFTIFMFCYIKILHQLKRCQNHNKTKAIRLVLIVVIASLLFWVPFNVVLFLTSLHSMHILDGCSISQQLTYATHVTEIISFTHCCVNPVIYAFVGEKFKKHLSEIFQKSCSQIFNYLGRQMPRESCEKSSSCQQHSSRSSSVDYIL

168 GPCRs [10] = molecular target: T10, 168 GPCRs (Homo sapiens, UniProt Q96LB1)
T10 construct: host or cells: PathHunter cell lines
T10 sequence (Q96LB1 1-330): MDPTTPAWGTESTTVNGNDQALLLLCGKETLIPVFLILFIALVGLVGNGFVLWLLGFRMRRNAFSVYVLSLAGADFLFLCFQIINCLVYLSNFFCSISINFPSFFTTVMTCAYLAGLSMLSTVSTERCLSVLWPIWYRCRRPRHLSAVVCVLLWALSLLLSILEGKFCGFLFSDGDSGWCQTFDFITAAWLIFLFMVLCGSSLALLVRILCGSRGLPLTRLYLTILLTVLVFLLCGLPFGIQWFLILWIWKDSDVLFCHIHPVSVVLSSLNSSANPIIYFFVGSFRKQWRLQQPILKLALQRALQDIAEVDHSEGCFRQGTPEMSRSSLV

T1 sequence (O00574 whole entry): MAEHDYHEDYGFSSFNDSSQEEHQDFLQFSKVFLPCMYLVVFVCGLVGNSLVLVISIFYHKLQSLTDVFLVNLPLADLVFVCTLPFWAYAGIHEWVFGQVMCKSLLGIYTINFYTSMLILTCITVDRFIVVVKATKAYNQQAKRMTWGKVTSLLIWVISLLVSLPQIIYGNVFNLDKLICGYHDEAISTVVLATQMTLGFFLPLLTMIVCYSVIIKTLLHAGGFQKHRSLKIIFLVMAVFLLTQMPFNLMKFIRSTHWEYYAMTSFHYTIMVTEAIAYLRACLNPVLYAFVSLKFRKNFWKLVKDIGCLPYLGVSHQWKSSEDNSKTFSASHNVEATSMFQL

Row | Compound | % Agonist Activity (168 GPCRs [1]; CXCR6, 1 uM) [%] | % Antagonist Activity (168 GPCRs [1]; CXCR6, 1 uM) [%] | % Agonist Activity (168 GPCRs [1]; CXCR6, 10 uM) [%] | % Antagonist Activity (168 GPCRs [1]; CXCR6, 10 uM) [%] | % Agonist Activity (168 GPCRs [2]; 1 uM) [%] | % Antagonist Activity (168 GPCRs [2]; 1 uM) [%] | % Agonist Activity (168 GPCRs [2]; 10 uM) [%] | % Antagonist Activity (168 GPCRs [2]; 10 uM) [%] | % Agonist Activity (168 GPCRs [3]; Conc 1 uM) [%] | % Antagonist Activity (168 GPCRs [3]; Conc 1 uM) [%] | % Agonist Activity (168 GPCRs [3]; Conc 10 uM) [%] | % Antagonist Activity (168 GPCRs [3]; Conc 10 uM) [%] | % Agonist Activity (168 GPCRs [4]; 1 uM) [%] | % Antagonist Activity (168 GPCRs [4]; 1 uM) [%] | % Agonist Activity (168 GPCRs [4]; 10 uM) [%] | % Antagonist Activity (168 GPCRs [4]; 10 uM) [%] | % Agonist Activity (168 GPCRs [5]; Conc 1 uM) [%] | % Antagonist Activity (168 GPCRs [5]; Conc 1 uM) [%] | % Agonist Activity (168 GPCRs [5]; Conc 10 uM) [%] | % Antagonist Activity (168 GPCRs [5]; Conc 10 uM) [%] | further results
1 | CNC(C)Cc1ccc2c(c1)OCO2 (centres unmarked) [MDMA, 3,4-Methylenedioxy methamphetamine, reference compound] | 14.7 | 20.9 | 3.8 | 5.2 | -0.7 | 1.2 | -1.2 | 5.9 | -0.8 | 5.7 | -0.6 | 5.1 | 2.3 | -14.5 | 0.7 | -11.7 | 2.9 | 3.7 | 0.1 | -0.9 | % Agonist Activity (168 GPCRs [6]; HRH1, 1 uM): 3.1%; % Antagonist Activity (168 GPCRs [6]; HRH1, 1 uM): 13.7%; % Agonist Activity (168 GPCRs [6]; HRH1, 10 uM): 3.8%; % Antagonist Activity (168 GPCRs [6]; HRH1, 10 uM): 38.4%; % Agonist Activity (168 GPCRs [7]; 1 uM): -1%; % Antagonist Activity (168 GPCRs [7]; 1 uM): -1.7%; % Agonist Activity (168 GPCRs [7]; 10 uM): -0.9%; % Antagonist Activity (168 GPCRs [7]; 10 uM): -7.4%; % Agonist Activity (168 GPCRs [8]; NPBWR2, 1 uM): -2.6%; % Antagonist Activity (168 GPCRs [8]; NPBWR2, 1 uM): -2.1%; % Agonist Activity (168 GPCRs [8]; NPBWR2, Conc 10 uM): -2.3%; % Antagonist Activity (168 GPCRs [8]; NPBWR2, Conc 10 uM): 2.4%; % Agonist Activity (168 GPCRs [9]; CCR8, 1 uM): -0.2%; % Antagonist Activity (168 GPCRs [9]; CCR8, 1 uM): -3.1%; % Agonist Activity (168 GPCRs [9]; CCR8, 10 uM): -0.2%; % Antagonist Activity (168 GPCRs [9]; CCR8, 10 uM): 4.3%; % Agonist Activity (168 GPCRs [10]; MRGPRX2, 1 uM): -0.8%; % Antagonist Activity (168 GPCRs [10]; MRGPRX2, 1 uM): -6%; % Agonist Activity (168 GPCRs [10]; MRGPRX2, 10 uM): -0.8%; % Antagonist Activity (168 GPCRs [10]; MRGPRX2, 10 uM): 1.9%
2 | CNC(C)C(=O)c1ccc2c(c1)OCO2 (centres unmarked) [methylone] | 0.3 | 27.2 | 0.3 | 12.6 | -2.5 | -11.6 | 0.2 | -11.4 | 0.3 | -0.7 | 0.6 | 5.3 | -1.4 | -5.2 | -1.1 | -14 | 0.7 | 13.2 | 0.3 | 8 | % Agonist Activity (168 GPCRs [6]; HRH1, 1 uM): 3%; % Antagonist Activity (168 GPCRs [6]; HRH1, 1 uM): -18%; % Agonist Activity (168 GPCRs [6]; HRH1, 10 uM): 2.5%; % Antagonist Activity (168 GPCRs [6]; HRH1, 10 uM): -2.2%; % Agonist Activity (168 GPCRs [7]; 1 uM): -2.3%; % Antagonist Activity (168 GPCRs [7]; 1 uM): -16%; % Agonist Activity (168 GPCRs [7]; 10 uM): -3%; % Antagonist Activity (168 GPCRs [7]; 10 uM): -7.7%; % Agonist Activity (168 GPCRs [8]; NPBWR2, 1 uM): -0.3%; % Antagonist Activity (168 GPCRs [8]; NPBWR2, 1 uM): -14.1%; % Agonist Activity (168 GPCRs [8]; NPBWR2, Conc 10 uM): 1.3%; % Antagonist Activity (168 GPCRs [8]; NPBWR2, Conc 10 uM): -14%; % Agonist Activity (168 GPCRs [9]; CCR8, 1 uM): -0.2%; % Antagonist Activity (168 GPCRs [9]; CCR8, 1 uM): 4.7%; % Agonist Activity (168 GPCRs [9]; CCR8, 10 uM): -0.6%; % Antagonist Activity (168 GPCRs [9]; CCR8, 10 uM): -0.3%; % Agonist Activity (168 GPCRs [10]; MRGPRX2, 1 uM): 1.4%; % Antagonist Activity (168 GPCRs [10]; MRGPRX2, 1 uM): 16.2%; % Agonist Activity (168 GPCRs [10]; MRGPRX2, 10 uM): 0.7%; % Antagonist Activity (168 GPCRs [10]; MRGPRX2, 10 uM): 8.9%
